# Results as given in patent publication US12421279B2, “Cyclic peptide antiviral agents and methods using same” (priority 2016, dated 2025).
# Several values for one entry are separate records, joined by “and”; a condition that tells them apart may be missing. Identical values can stand only once. Like-named read-outs stand apart in the source and are kept apart here. *1 amine or outer side, *2 acyl side, *3 side chain or, on linkers, in order; H or OH if unused. Where a SMILES comes first, the peptide text is derived from it. Bridges are numbered along the chain shown (N, C = ends). [ ]: non-standard residue; d: D form. X1 = O=C([C@@H]1C[C@H](n2cc(-c3ccc(-c4cccs4)cc3)nn2)CN1[*:1])[*:2]; X9 = CCc1ccc(-c2cn([C@H]3C[C@@H](C(=O)[*:2])N([*:1])C3)nn2)cc1; Bta = N[C@@H](Cc1csc2ccccc12)C(=O)O; Chg = N[C@H](C(=O)O)C1CCCCC1; Dab = NCC[C@H](N)C(=O)O
# What was measured:
# [1] = target: T1, HIV-1YU-2 gp120 binding to sCD4 (Human immunodeficiency virus type 1 group M subtype B, UniProt P35961); assay: SPR competition assay: inhibition of gp120 binding to CD4; settings: for inhibition of gp120 binding to CD4 (in words): SPR competition
# T1 construct: The purified DNA encoding gp120 YU-2 was transfected into HEK 293F cells; made in house; host or cells: HEK 293F
# Procedure: (§1) SPR experiments are performed on a Biacore 3000 optical biosensor (GE Healthcare). All experiments are carried out at 25° C. using standard PBS buffer pH=7.4 with 0.005% surfactant Tween and 2% DMSO.
# (§2) Three flow cells in the CM5 chip were used for amine coupling of different ligands through standard 1-ethyl-3-(3-(dimethylamino) propyl) carbodiimide (EDC)/N-hydroxysuccinamide (NHS) chemistry. Flow cell 1 containing 2000 RUs of immobilized antibody 2B6R (α-human IL5R) served as a negative control for flow cells 2 and 3 each of which contained 2000 RUs of immobilized CD4 and 17b respectively.
# (§3) For kinetic analyses, typically 2000-3000 RUs of protein reagents are immobilized on SPR chips, and analytes are passed over the surface at 50-100 μL/min. Surface regeneration is achieved by a 5 μL injection of 10 mM HCl solution at 100 μL/min. […] Regeneration of the surface is achieved by a single 10 second pulse of 1.3 M NaCl/35 mM NaOH and single 5-second pulse of 10 mM glycine, pH 1.5, for sCD4 and mAb 17b, respectively.
# (§4) Data analysis of SPR competition data was performed using BIAevaluation v4.1.1 software (GE). To correct for nonspecific binding, response signals from buffer injection and from control flow cell were subtracted from all sensorgrams. Inhibition potencies were determined by calculating the inhibitor concentration required for 50% inhibition of maximal binding (IC50). The inhibition curve was plotted and then fitted using the four-parameter equation as shown below using OriginPro 8 graphing software.
# (§5) The cyclic peptides of the invention are tested against HIV-1 gp120 by SPR competition assays. A mixture of the cyclic peptide/gp120 solutions is passed over SPR chip immobilized with CD4 and 17b separately. The competition assay evaluates the ability of each peptide to inhibit the binding between gp120 and both soluble CD4 and 17b antibody, a surrogate for co-receptor.
# [2] = target: T2, HIV-1YU-2 gp120 binding to mAb 17b (Human immunodeficiency virus type 1 group M subtype B, UniProt P35961); assay: SPR competition assay: inhibition of gp120 binding to 17b (co-receptor surrogate); settings: for inhibition of gp120 binding to 17b (in words): SPR competition
# T2 construct: The purified DNA encoding gp120 YU-2 was transfected into HEK 293F cells; made in house; host or cells: HEK 293F
# Procedure: as §1, §2, §3, §4, §5
# [3] = system: HOS.T4.R5 cells
# Procedure: cPTs 36 and 37 were tested for cytotoxicity in vitro with HOS.T4.R5 cells. The latter were seeded at […] per well and incubated with peptides as described elsewhere herein for the infection inhibition assays. Cell viability was determined using the tetrazolium salt premix reagent WST-1 from TaKaRa Bio, Inc., by following the manufacturer's protocol. The formazan product was measured 24 h post-exposure using a microplate reader (Molecular Devices) at an absorbance wavelength of 450 nm.
# [4] = target: T3, wild type gp120 YU-2 (Human immunodeficiency virus type 1 group M subtype B, UniProt P35961); assay: Isothermal titration calorimetry binding to gp120; set-up: species or system HIV-1
# T3 construct: into 30 μM of YU2 full-length gp120 at 25° C; made in house; host or cells: HEK 293F
# Procedure: FIGS. 9A-9C illustrate cPT binding and thermodynamic profile of monomeric wild type gp120 YU-2 for cPTs 3 (FIGS. 9A and 9C) and 36 (FIGS. 9B and 9C). Compound solution, 390 μM (for 3) or 200 μM (for 36), was titrated in 8 μL steps into 30 μM of YU2 full-length gp120 at 25° C. in the reaction chamber of a VP-ITC instrument using 1×PBS buffer at pH 7.3. The resulting heat changes were integrated, and the values obtained were fitted to a quadratic binding equation (one site binding model).
# cPT dissociation constants were determined at 25° C. on a VP-Isothermal Titration calorimeter (VP-ITC) system (MicroCal™, GE Healthcare, Freiburg). 200 μM (for 36) or 390 μM (for 3) compound solutions were in 8 μL steps titrated into 30 μM of wild type gp120 YU-2 at 25° C. using 1×PBS buffer at pH 7.3. The resulting heat change upon injection was integrated over a time range of 300 sec, and the obtained values were fitted to a standard single-site binding model using ORIGIN®.
# [5] = system: HIV-1Bal.01; settings: for IC50: read-out: HIV-1Bal.01 infection inhibition IC50, HIV-1Bal.01 pseudovirus, HOS.T4.R5 cells
# [6] = PBS buffer or PBS buffer with 5% DMSO
# Excerpt: Each cPT was synthesized starting from the corresponding amino acids: Asn for 34 and Dab for 35. Designation of “poor” and “good” solubility was based on behavior of cPT in PBS buffer or PBS buffer with 5% DMSO.
# [7] = target: monomeric gp120 (Human immunodeficiency virus type 1 group M subtype B, UniProt P35961); settings: background; cited from earlier work
# [8] = system: subtype A, B and C isolates; settings: read-out: IC50 range, neutralizes viral infection by subtype A; cited from earlier work
# [9] = system: viruses pseudotyped with VSV-G; settings: background; cited from earlier work
# [10] = system: tissue explants model; settings: concentrations up to 100 μM; cited from earlier work
compound,measurement,setting,value
"CC[C@H](C)[C@@H]1NC(=O)[C@H](CC(N)=O)NC(=O)[C@@H](N)CC(=O)NCCCC[C@@H](C(N)=O)NC(=O)[C@H](Cc2c[nH]c3ccccc23)NC(=O)[C@@H]2C[C@H](n3cc(-c4ccc(-c5cccs5)cc4)nn3)CN2C1=O [cPT 36, (3S,6S,14S,17S,20S,24S,25aS)-3-((1H-indol-3-yl)methyl)-14-amino-17-(2-amino-2-oxoethyl)-20-((S)-sec-butyl)-1,4,12,15,18,21-hexaoxo-24-(4-(4-(thiophen-2-yl)phenyl)-1H-1,2,3-triazol-1-yl)tetracosahydro-1H-pyrrolo[2,1-f][1,4,7,10,13,18]hexaazacyclotricosine-6-carboxamide] (H-DNI[X1]WK-NH2; lactam 1-6)",IC50,[1],~66 nM
same,inhibition of gp120 binding to CD4 (in words),[1],inhibited gp120 binding to both CD4 and 17b
same,inhibition of gp120 binding to CD4 (in words),[1]; listed as 29N-2,dual inhibitors of both CD4 and 17b binding to gp120
same,IC50,[2],~56 nM
same,inhibition of gp120 binding to 17b (in words),[2],inhibited gp120 binding to both CD4 and 17b
same,inhibition of gp120 binding to 17b (in words),[2]; listed as 29N-2,dual inhibitors of both CD4 and 17b binding to gp120
same,selectivity index (SI),[3]; estimated from the IC50 and the CC50 values,> 1000
same,cytotoxicity (cell viability),"[3]; highest concentrations used 100 μM, 24 h post-exposure",no cytotoxicity was detected
same,Kd,[4],350 nM
same,ΔH,"[4]; ITC, 25° C.",-4.07 ± 0.06 kcal/mol
same,ΔS,"[4]; ITC, 25° C.",0.0159 kcal/mol
same,−TΔS,"[4]; ITC, 25° C.",-4.74 kcal/mol
same,fold improvement in potency compared to 23,[5]; infection inhibition,> 2 fold
same,IC50,[5],105 nM and ~100 nM
same,IC50,[5]; listed as 29N-2,~105 nM
CCc1ccc(-c2cn([C@H]3C[C@H]4C(=O)N[C@@H](Cc5csc6ccccc56)C(=O)N[C@H](C(N)=O)CCCCNC(=O)C[C@H](N)C(=O)N[C@@H](CC(N)=O)C(=O)N[C@@H](C5CCCCC5)C(=O)N4C3)nn2)cc1 [compound 34] (H-DN[Chg][X9][Bta]K-NH2; lactam 1-6),solubility,[6],poor solubility
CCc1ccc(-c2cn([C@H]3C[C@H]4C(=O)N[C@@H](Cc5csc6ccccc56)C(=O)N[C@H](C(N)=O)CCCCNC(=O)C[C@H](N)C(=O)N[C@@H](CCN)C(=O)N[C@@H](C5CCCCC5)C(=O)N4C3)nn2)cc1 [compound 35] (H-D[Dab][Chg][X9][Bta]K-NH2; lactam 1-6),solubility,[6],better solubility
"(S)-4-((S)-2-((S)-2-((2S,4S)-1-(L-arginyl-L-isoleucyl-L-asparaginyl-L-asparaginyl-L-alloisoleucyl)-4-(4-ferrocenyl-1H-1,2,3-triazol-1-yl)pyrrolidine-2-carboxamido)-3-(1H-indol-3-yl) propanamido)-3-hydroxypropanamido)-5-(((S)-1-(((S)-1-(((S)-1-amino-4-(methylthio)-1-oxobutan-2-yl)amino)-4-(methylthio)-1-oxobutan-2-yl)amino)-1-oxopropan-2-yl)amino)-5-oxopentanoic acid [HNG156]",Kd,[7],7 nM
same,IC50,[8],80 to 62500 nM
same,neutralization of VSV-G pseudotyped viruses,[9],not viruses pseudotyped with VSV-G
same,toxicity,[10],no detectable toxicity
